Patent publication US7833736B2, “Protein markers of responsiveness to type III receptor tyrosine kinase inhibitors” (Cell Signaling Technology, Inc., priority 2006, dated 2010)

System: human tumor xenografts
Experiment: Growth of human tumor xenografts under OSI-930 (growth curves of xenograft tumor mass)
Format: in vivo, mice

`O=C(Nc1ccc(OC(F)(F)F)cc1)c1sccc1NCc1ccnc2ccccc12` [OSI-930] was tested, and the “response of xenograft tumor growth to the drug (growth curves of tumor mass)” value (five of the cell line xenograft models, data not shown) was “resistant” and the “response of xenograft tumor growth to the drug (growth curves of tumor mass)” value (the other seven cell line xenograft models) was “significant inhibition of tumor growth”.
